Assay [1] can be described thus: blockers of HIV-1 envelope-mediated cell-cell fusion – cherry-pick, dose response (AID 652057). The format is functional, cell-based.
Assay [2] can be described thus: viability loss in CEM21 cells – cell-based, CellTiter-Glo luminescence, cherry-picked, cytotoxicity control for viral fusion inhibitor project, dose response (AID 652042).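 Note: potency for signal decrease meaning cytotoxicity.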 The format is functional. (In general: ATP-based viability assays read luminescence as a measure of living cells.)
A short description of assay [3]: off-target signal loss in HeLa-CEM21 co-culture – HeLa F-luc CTL cells, cherry-picked, counter-screen for HIV-1 Env fusion inhibitor project, dose response (AID 652040).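 Note: potency for signal decrease marking cytotoxic or nonspecific inhibition.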 The format is functional, cell-based.
A short description of assay [4]: potency of ADAM10 substrate cleavage blockers – biochemical, QFRET, dose response (AID 743254).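 Note: ADAM10 enzyme with the DM2 quenched FRET peptide as substrate; EDANS fluorescence gain as the protease cuts the substrate; inhibitor potency against ADAM10 proteolytic activity.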
Assay [5] has as its target Disintegrin and metalloproteinase domain-containing protein 17 (Homo sapiens, UniProt P78536). The assay can be described thus: inhibition of ADAM17 substrate cleavage – biochemical, quenched FRET substrate, counter-screen for ADAM10 exosite inhibitor project, dose response (AID 743253). (Counterscreens check selectivity or assay interference.)
Assay [6] in a line: viability loss in HepG2 hepatoma cells – cell-based, ATP luminescence, cherry-pick, activator set 2, cytotoxicity control, dose response (AID 1053143). In kind it is functional.
Assay [7] addresses Lysosomal acid glucosylceramidase (Homo sapiens, UniProt P04062). Put plainly: Dose response cell-based high throughput screening assay to identify enhancers of beta-glucosidase activity. [Related pubchem assays: 784 ]. The format is functional.
The nature of assay [8]: cells. Particulars: A549.
Assay [9] in a line: cells. Particulars: HEK293.
For assay [10], the target named is 1-phosphatidylinositol 4,5-bisphosphate phosphodiesterase gamma-1 (Homo sapiens, UniProt P19174). Put plainly: Counterscreen for inhibitors of phospholipase C isozymes (PLC-B3): Fluorescence-based biochemical high throughput dose response assay to identify inhibitors of phospholipase C isozymes (PLC-gamma1).
The target of assay [11] is 1-phosphatidylinositol 4,5-bisphosphate phosphodiesterase beta-3 (Homo sapiens, UniProt Q01970). Put plainly: Fluorescence-based biochemical high throughput dose response assay to identify inhibitors of phospholipase C isozymes (PLC-B3).
For assay [12], the target named is T1, Methionyl-tRNA synthetase, putative (Trypanosoma brucei brucei, UniProt Q38C91). In kind it is functional, Trypanosoma brucei brucei strain 927/4 GUTat10.1.
A short description of assay [13]: Counterscreen for inhibitors of Trypanosoma brucei methionyl tRNA synthetase (MetRS): Luminescence-based cell-based high throughput dose response assay to identify compounds that are cytotoxic to Jurkat human T lymphocyte cells. The format is functional.
Assay [14] concerns the target T1, Methionyl-tRNA synthetase, putative. In kind it is functional, Trypanosoma brucei brucei strain 927/4 GUTat10.1. This is another data set of the same source.
A short description of assay [15]: Late stage counterscreen for inhibitors of Trypanosoma brucei methionyl tRNA synthetase (MetRS): Luminescence-based cell-based high throughput dose response assay to identify compounds that are cytotoxic to Jurkat human T lymphocyte cells. The format is functional.
Assay [16] deals with Luciferin 4-monooxygenase (Photinus pyralis, UniProt P08659). Put plainly: Counter Screen for Luciferase-based Assay Positives. [Related pubchem assays: 620, 618, 411 ].
A short description of assay [17]: viability of PTEN-deleted HCT116 cells – cell-based, HCT116 PTEN knockout, dose response (AID 1047).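 Note: HCT116 colon tumor cells with PTEN knocked out; cells exposed to compound for 60 hours before readout; potency for loss of cell viability measured by luminescence.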 In kind it is functional.
A further assay relates to HT-1080. Put plainly: HT1080 cell viability loss – fluorescence readout (AID 620). In kind it is functional, cell-based. Particulars: Homo sapiens.
Assay [18] can be described thus: viability of HCT116 lacking mutant beta-catenin – cell-based, human colon tumor, dose response (AID 1045).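 Note: HCT116 colon tumor cells with beta catenin knocked out; cells exposed to compound for 60 hours.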 The format is functional.
Assay [19] deals with Oxysterols receptor LXR-beta (Homo sapiens, UniProt P55055). In kind it is functional, cell-based.
The nature of assay [20]: intracellular Trypanosoma cruzi inhibitors in host cells – cell-based, plate reader, cherry-pick samples, set 3, dose response (AID 651818).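 Note: compounds incubated with infected cells for about four days.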 In kind it is functional.
Assay [21] is described as follows: T. cruzi growth inhibition in host cells, dose response, cell-based, plate reader, dry powder, set 2 (AID 652275). The format is functional.
Assay [22] is described as follows: anti-trypanosomal activity in BESM host cells – imaging, CA-I/72 strain, bovine embryo skeletal muscle, dry powder, dose response (AID 651885). In kind it is functional, cell-based.
Assay [23] in a line: Counterscreen for […] of the human trace amine associated receptor 1 (TAAR1): Fluorescence-based cell-based high throughput dose response assay to identify nonselective Ga16 agonists. The format is functional.
Assay [24] concerns the target T2, Trace amine-associated receptor 1 (Homo sapiens, UniProt Q96RJ0).
T2 sequence (Q96RJ0 whole entry): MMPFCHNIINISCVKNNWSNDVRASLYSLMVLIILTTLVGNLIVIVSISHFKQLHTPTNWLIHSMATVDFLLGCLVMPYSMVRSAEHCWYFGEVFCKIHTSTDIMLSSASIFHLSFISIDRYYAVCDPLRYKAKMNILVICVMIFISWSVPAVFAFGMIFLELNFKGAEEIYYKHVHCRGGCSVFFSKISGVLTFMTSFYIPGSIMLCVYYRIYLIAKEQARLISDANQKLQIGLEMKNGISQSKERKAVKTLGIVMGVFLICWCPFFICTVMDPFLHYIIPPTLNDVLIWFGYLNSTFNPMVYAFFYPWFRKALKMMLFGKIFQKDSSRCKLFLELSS
Put plainly: Fluorescence-based cell-based high throughput dose response assay to identify antagonists of the human trace amine associated receptor 1 (TAAR1). The format is functional.

Assay [25] in a line: Counterscreen for antagonists of the human trace amine associated receptor 1 (hTAAR1): Fluorescence-based cell-based high throughput dose response assay to identify nonselective Ga16 antagonists. The format is functional.
For assay [26], the target named is T2, Trace amine-associated receptor 1. Put plainly: Counterscreen for antagonists of the human trace amine associated receptor 1 (hTAAR1): Fluorescence-based cell-based high throughput dose response assay to identify TAAR1 Agonists. The format is functional.
The next assay has as its system HEK293. Put plainly: viability loss in HEK293T cells – cell-based, ATP luminescence, cherry-pick samples, cytotoxicity control, dose response (AID 687005).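 Note: cells exposed to compound for 48 hours.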 The format is functional. Particulars: Homo sapiens.
A short description of assay [27]: HEK293 Cytotoxicity Assay Measured in Cell-Based System Using Plate Reader - 7071-01_Inhibitor_Dose_CherryPick_Activity_Set2. The format is functional.
Assay [28] concerns the target Endoplasmic reticulum aminopeptidase 1 (Homo sapiens, UniProt Q9NZ08). The assay can be described thus: inhibition of human ERAP1 enzyme activity – biochemical, cherry-pick, set 2, plate reader, dose response (AID 743314).
A further assay has as its target NS3 (Hepatitis C virus, UniProt A3EZJ3). The assay can be described thus: NS3h DNA-binding inhibition IC50 – biochemical, fluorescence polarization, ChemBridge library, dose response (AID 743264).
Assay [29] can be described thus: HepG2 cell viability loss – cherry-picked samples, cytotoxicity control, dose response (AID 1053183). In kind it is functional, cell-based.
The nature of assay [30]: HEK293 cell viability loss – cherry-picked samples, cytotoxicity control, dose response (AID 1053185). The format is functional, cell-based.
The target in assay [31] is Metabotropic glutamate receptor 5 (Rattus norvegicus, UniProt P31424). Put plainly: Identification of a glycine sulfonamide based non-MPEP site positive allosteric potentiator (PAM) of mGlu5 (calcium_assay). In kind it is functional.
A short description of assay [32]: A Cell-Based Confirmatory Screen for Compounds that Inhibit VEEV, TC-83 (5). The format is functional.
Assay [33] is described as follows: A Cell-Based Confirmatory Screen for Compounds that Inhibit VEEV TC-83 (4). The format is functional.
Assay [34] can be described thus: inhibitors of non-replicating M. tuberculosis, dose response, luciferase, dry powder (AID 651619). The format is functional. Particulars: Mycobacterium tuberculosis.
A short description of assay [35]: inhibitors of non-replicating M. tuberculosis, dose response, luciferase, dry powder (AID 651620). The format is functional. Particulars: Mycobacterium tuberculosis.
A short description of assay [36]: growth inhibition of replicating M. tuberculosis, dose response, counter-screen, dry powder, IC90 (AID 651617). The format is functional. Particulars: Mycobacterium tuberculosis.
The nature of assay [37]: CTGF mRNA reduction in DLD1 cells – cell-based, DLD1 colon cancer, RT-qPCR, cherry-pick, dose response (AID 1053122). The format is functional. The note with it: Cancer cell lines. (Real-time PCR tracks product formation cycle by cycle.)
Assay [38] concerns the target Potassium channel subfamily K member 3 (Homo sapiens, UniProt O14649). Put plainly: inhibition of human KCNK3 channel flux – CHO cells, FluxOR thallium flux, SAR follow-up (AID 652212). The format is functional.
A further assay addresses Protein Wnt-3a (Mus musculus, UniProt P27467). The assay can be described thus: SAR analysis of small molecule antagonists of Gli-SUFU in a Wnt3a luminescent reporter assay. In kind it is functional.
Assay [39] has as its target COUP transcription factor 2 (Homo sapiens, UniProt P24468). Put plainly: Luminescence-based cell-based high throughput dose response assay to identify inhibitors of COUP-TFII (NR2F2). In kind it is functional.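 Note: HEK293 cells transiently cotransfected with COUP-TFII expression vector and reporter; luciferase reporter luminescence driven by COUP-TFII from the pX2-168 reporter plasmid.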
A short description of assay [40]: cervical cancer cell viability loss – HeLa, 24 h, plate reader, powder samples, set 3, cytotoxicity control, dose response (AID 651864). In kind it is functional, cell-based.
Assay [41] can be described thus: HeLa cell viability loss – 24 h, dry powder, set 2, cytotoxicity control, dose response (AID 651774). In kind it is functional, cell-based.

SMILES strings stand for the structures. Calls of active or inactive are those of the source. Where only a bound is given, the exact number is not on record here.

T1 sequence (Q38C91 whole entry): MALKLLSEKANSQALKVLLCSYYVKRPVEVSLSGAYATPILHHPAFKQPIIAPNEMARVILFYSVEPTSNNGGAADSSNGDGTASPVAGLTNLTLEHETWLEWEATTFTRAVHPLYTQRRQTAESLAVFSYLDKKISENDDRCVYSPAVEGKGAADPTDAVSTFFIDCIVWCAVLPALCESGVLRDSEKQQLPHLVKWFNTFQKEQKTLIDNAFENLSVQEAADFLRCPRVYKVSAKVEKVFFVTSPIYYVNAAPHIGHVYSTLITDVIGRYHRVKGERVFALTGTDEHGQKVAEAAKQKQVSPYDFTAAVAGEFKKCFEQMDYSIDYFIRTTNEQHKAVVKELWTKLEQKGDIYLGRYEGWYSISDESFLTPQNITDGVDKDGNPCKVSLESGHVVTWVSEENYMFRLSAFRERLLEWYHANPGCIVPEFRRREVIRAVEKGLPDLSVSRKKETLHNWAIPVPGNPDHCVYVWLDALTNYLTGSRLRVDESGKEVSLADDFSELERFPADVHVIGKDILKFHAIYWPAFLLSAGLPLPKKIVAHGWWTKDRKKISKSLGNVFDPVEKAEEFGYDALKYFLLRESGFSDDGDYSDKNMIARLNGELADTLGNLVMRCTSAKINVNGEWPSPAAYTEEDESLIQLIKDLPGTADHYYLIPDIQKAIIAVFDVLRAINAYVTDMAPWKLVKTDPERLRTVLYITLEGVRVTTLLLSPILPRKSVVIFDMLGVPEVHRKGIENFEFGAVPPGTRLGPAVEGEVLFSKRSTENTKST
Sequence of Disintegrin and metalloproteinase domain-containing protein 17 (P78536 whole entry, the tested form may be a part): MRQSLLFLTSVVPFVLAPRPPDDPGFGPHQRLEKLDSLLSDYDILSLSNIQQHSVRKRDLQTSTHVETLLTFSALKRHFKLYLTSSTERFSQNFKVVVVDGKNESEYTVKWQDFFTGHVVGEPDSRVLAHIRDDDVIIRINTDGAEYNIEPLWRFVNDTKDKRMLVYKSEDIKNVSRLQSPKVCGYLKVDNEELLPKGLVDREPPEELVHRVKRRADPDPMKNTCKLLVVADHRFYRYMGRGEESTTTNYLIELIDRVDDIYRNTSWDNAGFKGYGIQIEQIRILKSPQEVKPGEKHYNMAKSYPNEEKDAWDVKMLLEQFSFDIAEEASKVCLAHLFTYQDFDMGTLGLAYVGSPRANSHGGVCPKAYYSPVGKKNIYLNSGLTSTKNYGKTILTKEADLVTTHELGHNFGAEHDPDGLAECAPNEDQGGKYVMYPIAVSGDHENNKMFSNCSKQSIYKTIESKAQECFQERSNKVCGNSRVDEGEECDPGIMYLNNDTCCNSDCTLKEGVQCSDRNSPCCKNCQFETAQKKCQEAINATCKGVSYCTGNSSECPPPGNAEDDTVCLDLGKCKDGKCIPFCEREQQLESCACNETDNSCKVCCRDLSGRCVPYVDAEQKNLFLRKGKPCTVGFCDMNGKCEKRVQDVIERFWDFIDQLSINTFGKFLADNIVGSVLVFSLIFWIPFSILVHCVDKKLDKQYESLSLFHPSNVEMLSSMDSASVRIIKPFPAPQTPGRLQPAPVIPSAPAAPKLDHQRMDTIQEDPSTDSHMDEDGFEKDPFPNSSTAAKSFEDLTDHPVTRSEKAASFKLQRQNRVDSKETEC
Sequence of Endoplasmic reticulum aminopeptidase 1 (Q9NZ08 whole entry): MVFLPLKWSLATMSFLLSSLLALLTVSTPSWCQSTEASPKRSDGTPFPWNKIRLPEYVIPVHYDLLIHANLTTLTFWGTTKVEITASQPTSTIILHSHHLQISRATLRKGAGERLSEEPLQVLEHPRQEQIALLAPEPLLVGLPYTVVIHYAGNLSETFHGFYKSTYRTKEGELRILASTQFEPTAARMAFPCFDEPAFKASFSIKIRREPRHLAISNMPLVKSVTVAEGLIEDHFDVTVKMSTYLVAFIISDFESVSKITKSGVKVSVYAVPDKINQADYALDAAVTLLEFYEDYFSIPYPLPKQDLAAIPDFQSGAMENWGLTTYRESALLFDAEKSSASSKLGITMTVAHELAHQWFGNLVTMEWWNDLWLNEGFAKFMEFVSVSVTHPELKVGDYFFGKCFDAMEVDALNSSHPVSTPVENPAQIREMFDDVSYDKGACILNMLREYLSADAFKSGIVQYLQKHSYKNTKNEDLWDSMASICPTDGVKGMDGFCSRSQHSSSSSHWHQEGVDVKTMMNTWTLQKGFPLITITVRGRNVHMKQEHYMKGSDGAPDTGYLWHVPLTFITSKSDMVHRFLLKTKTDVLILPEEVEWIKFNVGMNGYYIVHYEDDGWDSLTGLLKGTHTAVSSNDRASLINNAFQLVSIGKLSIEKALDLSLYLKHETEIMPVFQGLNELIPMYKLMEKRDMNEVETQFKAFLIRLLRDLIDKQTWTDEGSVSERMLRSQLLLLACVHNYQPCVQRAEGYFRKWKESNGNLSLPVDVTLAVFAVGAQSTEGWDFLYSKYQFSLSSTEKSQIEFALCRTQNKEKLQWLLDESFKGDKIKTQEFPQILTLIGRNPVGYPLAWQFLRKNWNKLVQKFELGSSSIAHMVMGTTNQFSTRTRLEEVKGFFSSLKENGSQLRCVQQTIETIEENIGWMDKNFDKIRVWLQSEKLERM
Sequence of Metabotropic glutamate receptor 5 (P31424 whole entry): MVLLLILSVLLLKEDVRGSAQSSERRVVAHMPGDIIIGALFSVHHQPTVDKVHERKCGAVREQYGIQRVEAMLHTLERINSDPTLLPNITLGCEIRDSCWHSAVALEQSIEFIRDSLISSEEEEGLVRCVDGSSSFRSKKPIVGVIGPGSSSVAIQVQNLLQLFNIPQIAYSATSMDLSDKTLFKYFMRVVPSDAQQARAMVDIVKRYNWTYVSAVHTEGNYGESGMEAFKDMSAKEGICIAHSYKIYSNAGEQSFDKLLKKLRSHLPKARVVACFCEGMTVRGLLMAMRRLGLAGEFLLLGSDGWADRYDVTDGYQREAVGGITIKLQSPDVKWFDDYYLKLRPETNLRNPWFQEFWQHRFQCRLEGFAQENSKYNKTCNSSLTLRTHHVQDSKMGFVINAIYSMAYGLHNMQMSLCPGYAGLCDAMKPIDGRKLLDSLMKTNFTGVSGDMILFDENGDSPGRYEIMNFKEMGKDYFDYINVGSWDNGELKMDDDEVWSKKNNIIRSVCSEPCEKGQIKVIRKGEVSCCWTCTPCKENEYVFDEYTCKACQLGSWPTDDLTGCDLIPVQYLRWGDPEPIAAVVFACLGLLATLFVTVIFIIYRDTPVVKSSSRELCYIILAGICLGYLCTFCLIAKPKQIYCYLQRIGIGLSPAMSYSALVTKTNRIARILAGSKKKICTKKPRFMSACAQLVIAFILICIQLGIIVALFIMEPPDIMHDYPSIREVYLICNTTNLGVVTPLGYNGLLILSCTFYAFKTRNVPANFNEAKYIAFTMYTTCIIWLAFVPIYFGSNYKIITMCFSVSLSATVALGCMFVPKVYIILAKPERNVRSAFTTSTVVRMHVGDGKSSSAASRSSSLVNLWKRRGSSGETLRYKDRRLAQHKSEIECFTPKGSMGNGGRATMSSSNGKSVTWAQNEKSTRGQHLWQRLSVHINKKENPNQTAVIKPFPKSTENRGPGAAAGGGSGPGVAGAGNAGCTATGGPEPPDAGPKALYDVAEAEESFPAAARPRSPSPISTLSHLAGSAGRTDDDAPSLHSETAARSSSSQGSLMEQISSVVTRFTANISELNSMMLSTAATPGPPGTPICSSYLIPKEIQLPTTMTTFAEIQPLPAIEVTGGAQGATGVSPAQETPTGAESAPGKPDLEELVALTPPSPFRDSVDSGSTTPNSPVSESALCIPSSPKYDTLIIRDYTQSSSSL
Sequence of Oxysterols receptor LXR-beta (P55055 whole entry): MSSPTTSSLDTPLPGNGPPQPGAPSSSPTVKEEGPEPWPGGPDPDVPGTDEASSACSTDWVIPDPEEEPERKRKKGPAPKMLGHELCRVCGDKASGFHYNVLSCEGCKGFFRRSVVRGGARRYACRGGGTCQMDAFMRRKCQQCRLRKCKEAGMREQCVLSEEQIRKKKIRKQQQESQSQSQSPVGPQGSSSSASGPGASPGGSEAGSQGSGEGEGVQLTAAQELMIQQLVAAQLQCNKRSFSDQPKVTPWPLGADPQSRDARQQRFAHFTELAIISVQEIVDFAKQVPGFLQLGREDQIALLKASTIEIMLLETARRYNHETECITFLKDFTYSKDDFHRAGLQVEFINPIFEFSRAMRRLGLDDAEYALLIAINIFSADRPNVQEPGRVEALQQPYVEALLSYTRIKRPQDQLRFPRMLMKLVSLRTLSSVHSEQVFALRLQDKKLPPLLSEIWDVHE
Sequence of Lysosomal acid glucosylceramidase (P04062 whole entry): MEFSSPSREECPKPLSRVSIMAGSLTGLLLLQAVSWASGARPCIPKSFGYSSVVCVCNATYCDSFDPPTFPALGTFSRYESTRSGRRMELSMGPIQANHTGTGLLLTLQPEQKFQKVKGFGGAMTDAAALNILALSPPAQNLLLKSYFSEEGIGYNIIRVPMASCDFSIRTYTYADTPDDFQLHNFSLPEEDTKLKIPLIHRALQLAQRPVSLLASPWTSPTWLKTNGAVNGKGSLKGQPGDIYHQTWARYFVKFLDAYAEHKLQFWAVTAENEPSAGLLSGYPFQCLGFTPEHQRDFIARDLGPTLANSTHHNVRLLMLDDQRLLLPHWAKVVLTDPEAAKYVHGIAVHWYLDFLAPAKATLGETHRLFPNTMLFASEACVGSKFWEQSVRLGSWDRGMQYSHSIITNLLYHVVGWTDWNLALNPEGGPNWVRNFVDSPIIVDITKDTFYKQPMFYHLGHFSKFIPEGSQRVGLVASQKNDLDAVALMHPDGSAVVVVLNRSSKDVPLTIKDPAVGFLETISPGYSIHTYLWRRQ

The AC50 is the midpoint of the concentration-response curve, whichever way the signal moves. In general, IC50 refers to the concentration needed to halve the response being measured. Consider `COc1cc2c(cc1OC)C(=O)N1[C@H]3c4cc(Cl)ccc4OC[C@@H]3[C@H](c3ccccc3)[C@]1(C)C(=O)N2`, for which the AC50 is 8.86 µM (active) in assay [1], 53.4 µM (active) in [2] and 21 µM (active) in assay [3]. Further, the IC50 in assay [4] and in assay [5] was > 69.5 µM (inactive) throughout.

`c1csc(-c2ccc(N3CCOCC3)nn2)c1`: the AC50 in assay [6] was 26 µM (active).

By EC50 is commonly meant the concentration at which the effect is half-maximal. `Cc1cc2c(C)cc(=O)oc2c2c1NCCC2`: the EC50 in [7] was > 50 µM (not active). The AC50 in “cells [8]” and in “cells [9]” was > 52 µM (inactive) throughout.

Turning to `CCOC(=O)/C(C#N)=C1/C=CN(C)C=N1`, the IC50 in assay [10] and in assay [11] was > 123 µM (inactive) throughout.

Consider `CC(=O)c1c[nH]c(C(=O)NCc2cccc(C(F)(F)F)c2)c1`, for which the IC50 in assay [12] is 2.07 µM (active); in assay [13] it was 83.3 µM (inactive); in assay [14] it was 1.16 µM (active); in [15] it was > 83.3 µM (inactive).

In the case of `Clc1cccc(-c2nnc(-c3ccccc3)o2)c1`, the EC50 in assay [16] is 50.7 µM (active); in [17], 49 µM (active); in the assay with HT-1080 it was > 50 µM (not active); in assay [18], 26.3 µM (active); in assay [19] it was > 67.5 µM (inactive).

Turning to `COc1ccc(CN(C)C[C@@H]2Oc3c(NC(=O)c4ccncc4)cccc3C(=O)N([C@@H](C)CO)C[C@H]2C)cc1`, the figures for the AC50 in [20] and in assay [21] were 0.388 µM (active) and 0.0382 µM (active), respectively. Moreover, the IC50 in [22] is 0.18 µM (active).

As to `COC(=O)Cc1nnn2c1[C@H](C)[C@H](c1ccccc1Br)OCC2`, the EC50 in assay [23] and in assay [26] was > 29.9 µM (inactive) throughout. Further, the values for the IC50 in assay [24] and in assay [25] were 1.28 µM (active) and > 29.9 µM (inactive), respectively.

For `COc1ccccc1C#Cc1ccc2c(c1)O[C@@H](CN(C)C(C)=O)[C@@H](C)CN([C@H](C)CO)S2(=O)=O`, the AC50 (in the assay with HEK293; in assay [27]) was 9.59 µM (active) each time.

With `Cc1cc(=O)oc2c(CN3CCCCC3)c(O)ccc12`, the AC50 in [28] is 5.18 µM (active).

Regarding `Cc1ccc(C)n1-c1cc(C(=O)O)ccc1O`, the IC50 at NS3 is 50.4 µM (active).

Take `N#Cc1cccc(-c2ccc([C@H]3[C@@H]4CN(C(=O)Nc5ccc(C(F)(F)F)cc5)C[C@H]3N4)cc2)c1`: the AC50 is 36.1 µM (active) in assay [29] and > 52 µM (inactive) in assay [30].

Regarding `CC(C(=O)Nc1cc(Cl)ccn1)N(c1ccccc1Cl)S(C)(=O)=O` (stereo not given), the EC50 in assay [31] was 10 µM (inconclusive).

Turning to `CCN1CCN(Cc2nc3ccc([N+](=O)[O-])cc3c(=O)n2-c2ccc(F)cc2)CC1`, the IC50 is 0.99 µM (active) in assay [32] and 0.6 µM (active) in assay [33].

Usually IC90 stands for the point of the concentration-response curve where the effect stands at 90%. Take `COc1ccc(-c2nnc(SCc3ccccn3)o2)cc1`: the IC90 is 4 µM (active) in assay [34], 4 µM (active) in [35] and 62 µM (active) in assay [36].

In the case of `O=C(Cc1ccncc1)N1CCCCN2[C@@H](CO)[C@H](c3ccc(C#Cc4ccccc4F)cc3)[C@@H]2C1`, the half-maximal activity concentration (AC50) in [37] was 13.1 µM (active).

For `Cc1cccc(C(=O)Nc2ccccc2C(=O)Nc2ccccc2)c1`, in [38], the IC50 is 5.59 µM (active).

Turning to `O=C(Nc1cc(N2CCCCC2)ncn1)c1ccc(Br)o1`, the IC50 at Protein Wnt-3a is > 21.8 µM (inactive).

Turning to `c1ccc2cc3[nH]c(CNc4nc(N5CCOCC5)nc5c4ncn5-c4ccsc4)nc3cc2c1`, the concentration for half-maximal inhibition (IC50) in assay [39] was 6.35 µM (active).

Regarding `CCn1nccc1/N=C/c1ccc(N2CCCC2)cc1`, the AC50 in assay [40] was > 160 µM (inactive).

As for `O=C(Nc1ccc(-c2ccccc2)cc1)NC1CCCC1`, the AC50 in assay [41] was 68 µM (active).

For the origin of these results see ChEMBL document CHEMBL1201862, “PubChem BioAssay data set” (2004).
